# Results published in patent publication US10590105B2, “1,3-dihydroxy-phenyl derivatives useful as immunomodulators” (BRISTOL-MYERS SQUIBB COMPANY, priority 2016, dated 2020).
# Biological target: PD-1/PD-L1 interaction (PD-1-Ig / PD-L1-His) (Homo sapiens (Human), UniProt Q9NZQ7)
# Assay: PD-1/PD-L1 Homogenous Time-Resolved Fluorescence (HTRF) binding assay
# Settings: PD-1/PD-L1 HTRF binding assay; value given as range class; read-out: Range or IC50
# From the text: The ability of the compounds of formula (I) to bind to PD-L1 was investigated using a PD-1/PD-L1 Homogenous Time-Resolved Fluorescence (HTRF) binding assay.
# Homogenous Time-Resolved Fluorescence (HTRF) Binding Assay.
# The interaction of PD-1 and PD-L1 can be assessed using soluble, purified preparations of the extracellular domains of the two proteins. The PD-1 and PD-L1 protein extracellular domains were expressed as fusion proteins with detection tags, for PD-1, the tag was the Fc portion of Immunoglobulin (PD-1-Ig) and for PD-L1 it was the 6 histidine motif (PD-L1-His). All binding studies were performed in an HTRF assay buffer consisting of dPBS supplemented with 0.1% […] bovine serum albumin and 0.05% (v/v) Tween-20. For the h/PD-L1-His binding assay, inhibitors were pre-incubated with PD-L1-His (10 nM final) for 15 m in 4 μl of assay buffer, followed by addition of PD-1-Ig (20 nM final) in 1 μl of assay buffer and further incubation for 15 m. HTRF detection was achieved using europium crypate-labeled anti-Ig (1 nM final) and allophycocyanin (APC) labeled anti-His (20 nM final). Antibodies were diluted in HTRF detection buffer and 5 μl was dispensed on top of the binding reaction. The reaction mixture was allowed to equilibrate for 30 minutes and the resulting signal (665 nm/620 nm ratio) was obtained using an EnVision fluorometer. Additional binding assays were established between the human proteins PD-1-Ig/PD-L2-His (20 & 5 nM, respectively) and CD80-His/PD-L1-Ig (100 & 10 nM, respectively).
# Recombinant Proteins. Human PD-1 (25-167) with a C-terminal human Fc domain of immunoglobulin G (Ig) epitope tag [hPD-1 (25-167)-3S-IG] and human PD-L1 (18-239) with a C-terminal His epitope tag [hPD-L1(18-239)-TVMV-His] were expressed in HEK293T cells and purified sequentially by ProteinA affinity chromatography and size exclusion chromatography. Human PD-L2-His and CD80-His was obtained through commercial sources.
# Ranges are as follows: A=0.001 to 0.010 micromolar; B=0.011 to 0.150 micromolar; C=0.151 to 10 micromolar.
# Chain of PD-1/PD-L1 interaction (PD-1-Ig / PD-L1-His) (Q9NZQ7 other isoform, or with tags, fused parts or gaps): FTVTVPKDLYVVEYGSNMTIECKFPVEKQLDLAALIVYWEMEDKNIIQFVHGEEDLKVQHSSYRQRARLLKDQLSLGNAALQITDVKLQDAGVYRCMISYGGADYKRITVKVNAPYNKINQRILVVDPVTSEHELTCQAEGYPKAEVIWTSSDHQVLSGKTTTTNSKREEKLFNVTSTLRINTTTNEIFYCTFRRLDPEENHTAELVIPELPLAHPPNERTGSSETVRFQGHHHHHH
row,SMILES,IC50 [nM]
1,"Cc1c(COc2cc(OCc3cncc(C#N)c3)c(CN[C@H](CO)C(=O)O)cc2Cl)cccc1-c1ccc2c(c1)ncn2CCN(C)C [Example 1025, (R)-2-((5-chloro-2-((5-cyanopyridin-3-yl)methoxy)-4-((3-(1-(2-(dimethylamino)ethyl)-1H-benzo[d]imidazol-6-yl)-2-methylbenzyl)oxy)benzyl)amino)-3-hydroxypropanoic acid and (R)-2-((5-chloro-2-((5-cyanopyridin-3-yl)methoxy)-4-((3-(1-(2-(dimethylamino)ethyl)-1H-benzo[d]imidazol-5-yl)-2-methylbenzyl)oxy)benzyl)amino)-3-hydroxypropanoic acid]",151 to 10000
2,"Cc1c(COc2cc(OCc3cncc(C#N)c3)c(CN[C@](C)(CO)C(=O)O)cc2Cl)cccc1-c1ccc2ncccc2c1 [Example 1005, (R)-2-((5-chloro-2-((5-cyanopyridin-3-yl)methoxy)-4-((2-methyl-3-(quinolin-6-yl)benzyl)oxy)benzyl)amino)-3-hydroxy-2-methylpropanoic acid]",151 to 10000
3,"Cc1c(COc2cc(OCc3cncc(C#N)c3)c(CN[C@](C)(CO)C(=O)O)cc2Cl)cccc1-c1ccc2ccncc2c1 [Example 1008, (R)-2-((5-chloro-2-((5-cyanopyridin-3-yl)methoxy)-4-((3-(isoquinolin-7-yl)-2-methylbenzyl)oxy)benzyl)amino)-3-hydroxy-2-methylpropanoic acid]",11 to 150
4,"Cc1c(COc2cc(OCc3cncc(C#N)c3)c(CN[C@](C)(CO)C(=O)O)cc2Cl)cccc1-c1ccc2occc2c1 [Example 1013, (R)-2-((4-((3-(benzofuran-5-yl)-2-methylbenzyl)oxy)-5-chloro-2-((5-cyanopyridin-3-yl)methoxy)benzyl)amino)-3-hydroxy-2-methylpropanoic acid]",11 to 150
5,"Cc1c(COc2cc(OCc3cncc(C#N)c3)c(CN[C@](C)(CO)C(=O)O)cc2Cl)cccc1-c1ccc2ccoc2c1 [Example 1019, (R)-2-((4-((3-(benzofuran-6-yl)-2-methylbenzyl)oxy)-5-chloro-2-((5-cyanopyridin-3-yl)methoxy)benzyl)amino)-3-hydroxy-2-methylpropanoic acid]",1 to 10
6,"Cc1c(COc2cc(OCc3cncc(C#N)c3)c(CN3CCCC[C@H]3C(=O)O)cc2Cl)cccc1-c1cnc2ccccc2c1 [Example 1003, (S)-1-(5-chloro-2-((5-cyanopyridin-3-yl)methoxy)-4-((2-methyl-3-(quinolin-3-yl)benzyl)oxy)benzyl) piperidine-2-carboxylic acid]",151 to 10000
7,"Cc1c(COc2cc(OCc3cncc(C#N)c3)c(CN[C@](C)(CO)C(=O)O)cc2Cl)cccc1-c1ccc2scnc2c1 [Example 1021, (R)-2-((4-((3-(benzo[d]thiazol-5-yl)-2-methylbenzyl)oxy)-5-chloro-2-((5-cyanopyridin-3-yl)methoxy)benzyl)amino)-3-hydroxy-2-methylpropanoic acid]",1 to 10
8,"Cc1c(COc2cc(OCc3cncc(C#N)c3)c(CN3CCC[C@@]3(C)C(=O)O)cc2Cl)cccc1-c1ccc2scnc2c1 [Example 1023, (S)-1-(4-((3-(benzo[d]thiazol-5-yl)-2-methylbenzyl)oxy)-5-chloro-2-((5-cyanopyridin-3-yl)methoxy)benzyl)-2-methylpyrrolidine-2-carboxylic acid]",11 to 150
9,"Cc1c(COc2cc(OCc3cncc(C#N)c3)c(CO)cc2Cl)cccc1-c1cccc(OCCCN2CC[C@@H](O)C2)n1 [Example 1031, (R)-5-((4-chloro-2-(hydroxymethyl)-5-((3-(6-(3-(3-hydroxypyrrolidin-1-yl)propoxy)pyridin-2-yl)-2-methylbenzyl)oxy)phenoxy)methyl)nicotinonitrile]",151 to 10000
10,"Cc1c(COc2cc(OCc3cncc(C#N)c3)c(CN[C@](C)(CO)C(=O)O)cc2Cl)cccc1-c1ccc2cnccc2c1 [Example 1009, (R)-2-((5-chloro-2-((5-cyanopyridin-3-yl)methoxy)-4-((3-(isoquinolin-6-yl)-2-methylbenzyl)oxy)benzyl)amino)-3-hydroxy-2-methylpropanoic acid]",11 to 150
11,"Cc1c(COc2cc(OCc3cncc(C#N)c3)c(CNC(C)(C)C(=O)O)cc2Cl)cccc1-c1ccc2scnc2c1 [Example 1022, 2-((4-((3-(benzo[d]thiazol-5-yl)-2-methylbenzyl)oxy)-5-chloro-2-((5-cyanopyridin-3-yl)methoxy)benzyl)amino)-2-methylpropanoic acid]",11 to 150

# The next lines start with the values.
row,IC50 [nM],SMILES
1,151 to 10000,"Cc1nn(-c2cccc(COc3cc(OCc4cncc(C#N)c4)c(CN[C@](C)(CO)C(=O)O)cc3Cl)c2C)c(C)c1CN1CC[C@@H](O)C1 [Example 2009, (R)-2-((5-chloro-2-((5-cyanopyridin-3-yl)methoxy)-4-((3-(4-(((R)-3-hydroxypyrrolidin-1-yl)methyl)-3,5-dimethyl-1H-pyrazol-1-yl)-2-methylbenzyl)oxy)benzyl)amino)-3-hydroxy-2-methylpropanoic acid]"
2,1 to 10,"Cc1c(COc2cc(OCc3cncc(C#N)c3)c(CN[C@H](CO)C(=O)O)cc2Cl)cccc1-c1ccc2nccnc2c1 [Example 1034, (R)-2-((5-chloro-2-((5-cyanopyridin-3-yl)methoxy)-4-((2-methyl-3-(quinoxalin-6-yl)benzyl)oxy)benzyl)amino)-3-hydroxypropanoic acid]"
3,11 to 150,"Cc1c(OCCCN2CCCCC2)cccc1-c1ccnc(COc2cc(OCc3cncc(C#N)c3)c(CN3CCCC[C@H]3C(=O)O)cc2Cl)c1C [Example 2014, (S)-1-(5-chloro-2-((5-cyanopyridin-3-yl)methoxy)-4-((3-methyl-4-(2-methyl-3-(3-(piperidin-1-yl)propoxy)phenyl)pyridin-2-yl)methoxy)benzyl)piperidine-2-carboxylic acid]"
4,1 to 10,"Cc1c(COc2cc(OCc3cncc(C#N)c3)c(CNC(C)(CO)CO)cc2Cl)cccc1-c1ccnc(OCCCN2CCCCC2)c1Cl [Example 2001, 5-((4-chloro-5-((3-(3-chloro-2-(3-(piperidin-1-yl)propoxy)pyridin-4-yl)-2-methylbenzyl)oxy)-2-(((1,3-dihydroxy-2-methylpropan-2-yl)amino)methyl)phenoxy)methyl)nicotinonitrile]"
5,151 to 10000,"Cc1c(COc2cc(OCc3cncc(C#N)c3)c(CN3CCCC[C@H]3C(=O)O)cc2Cl)cccc1-c1cccn(CCCN2CC[C@@H](O)C2)c1=O [Example 1039, (S)-1-(5-chloro-2-((5-cyanopyridin-3-yl)methoxy)-4-((3-(1-(3-((R)-3-hydroxypyrrolidin-1-yl)propyl)-2-oxo-1,2-dihydropyridin-3-yl)-2-methylbenzyl)oxy)benzyl)piperidine-2-carboxylic acid]"
6,1 to 10,"CCC(CO)(CO)NCc1cc(Cl)c(OCc2nccc(-c3cccc(OCCCN4CC[C@@H](O)C4)c3C)c2C)cc1OCc1cncc(C#N)c1 [Example 2013, (R)-5-((4-chloro-2-(((1-hydroxy-2-(hydroxymethyl)butan-2-yl)amino)methyl)-5-((4-(3-(3-(3-hydroxypyrrolidin-1-yl)propoxy)-2-methylphenyl)-3-methylpyridin-2-yl)methoxy)phenoxy)methyl)nicotinonitrile]"
7,1 to 10,"Cc1c(COc2cc(OCc3cncc(C#N)c3)c(CN[C@](C)(CO)C(=O)O)cc2Cl)cccc1-c1ccc2nccnc2c1 [Example 1035, (R)-2-((5-chloro-2-((5-cyanopyridin-3-yl)methoxy)-4-((2-methyl-3-(quinoxalin-6-yl)benzyl)oxy)benzyl)amino)-3-hydroxy-2-methylpropanoic acid]"
8,1 to 10,"Cc1c(OCCCN2CC[C@@H](O)C2)cccc1-c1ccnc(COc2cc(OCc3cncc(C#N)c3)c(CN[C@@](C)(CO)C(=O)O)cc2Cl)c1C [Example 2012, (S)-2-((5-chloro-2-((5-cyanopyridin-3-yl)methoxy)-4-((4-(3-(3-((R)-3-hydroxypyrrolidin-1-yl)propoxy)-2-methylphenyl)-3-methylpyridin-2-yl)methoxy)benzyl)amino)-3-hydroxy-2-methylpropanoic acid]"
9,151 to 10000,"Cc1nn(-c2cccc(COc3cc(OCc4cncc(C#N)c4)c(CN4CC[C@@H](O)C4)cc3Cl)c2C)c(C)c1CN1CC[C@@H](O)C1 [Example 2007, 5-((4-chloro-2-(((R)-3-hydroxypyrrolidin-1-yl)methyl)-5-((3-(4-(((R)-3-hydroxypyrrolidin-1-yl)methyl)-3,5-dimethyl-1H-pyrazol-1-yl)-2-methylbenzyl)oxy)phenoxy)methyl)nicotinonitrile]"
